Series [1] can be described thus: Cytotoxicity testing (MTT). The class given is cell-based, human. To be noted: human, 48 h, MTT. On the procedure:
(§1) h (for C. albicans, C. krusei, C. tropicalis, C. parapsilosis) or 48 h (for C. neoformans, A. fumigatus). The MIC was determined based on visible growth inhibition compared with the control. All experiments were performed in duplicate.
(§2) Cytotoxicity testing. The cell lines HK2 and 16HBE were used to evaluate the cytotoxicity of 19ak, 19k and 19t. Cells in DMEM containing 10% fetal bovine serum (Gibco) were seeded in 96-well tissue culture plates at a cell density of 1 × 10^4 cells/mL and incubated for 24 h to allow adhesion. The supernatant was then replaced with fresh DMEM containing various concentrations of 19ak, 19k and 19t. The plates were subsequently incubated for an additional 48 h at 37°C with 5% CO2, followed by the addition of 10 μL of MTT solution to each well and incubation at 37°C for 4 h.
(§3) The effects of the compounds on cell proliferation were detected by measuring the absorbance at 570 nm in a microplate reader (BioTek, VT, USA). Three independent experiments were conducted. […]

Series [2] relates to human bronchial epithelial cell line 16HBE. The series can be described thus: Cytotoxicity testing (MTT). It counts as cell-based. The conditions noted are these: ratio of IC50 against 16HBE to MIC80 against C. albicans SC5314. On the procedure: as §1, §2, §3
Series [3] relates to C. albicans SC5314 cells. Briefly: Intracellular ATP production. The class given is cell-based, Candida albicans. To be noted: 0.125 μg/mL, compared with control cells. On the procedure:
albicans SC5314 cells (1 × 10^6 cells/mL) were challenged with various doses of 19ak and incubated at 30°C for 6 h, followed by staining with 20 μM Rh123 for 30 min in the dark and detection by flow cytometry (Becton Dickinson, CA, USA).
Measurement of intracellular ATP production. To explore whether 19ak affects intracellular ATP content by damaging mitochondria, we treated C. albicans SC5314 cells (1 × 10^6 cells/mL) with different doses of 19ak. After lysing the cells in lysis buffer, ATP levels were measured with the ATP Assay Kit (Beyotime, Haimen, China) according to the manufacturer's instructions. Cellular protein concentrations were determined using a BCA Protein Assay Kit (Beyotime, Haimen, China). The intracellular ATP content was calculated by referring to a standard curve and normalized using the protein content of each sample for expression as nmol/mg […]
ROS production assay. […] The fluorescence intensity was then measured by flow cytometry, and the data were analyzed with Win MDI 2.9 software.
Influence of oxidant or antioxidant molecules on 19ak activity. […] The effects of NAC, Tu and DTT on the growth of 19ak treated fungal cells were measured using a time-growth curve. […] A microplate reader was used to measure the absorbance at600 nm, and the growth curves were plotted.

Series [4] has as its system C. albicans SC5314 cells. The series can be described thus: ROS production assay (DCFH-DA). To be noted: 6 h, compared with the control. The class given is cell-based, Candida albicans. On the procedure: ROS production assay. Logarithmic-phase C. albicans SC5314 cells (1 × 10^6 cells/mL in RPMI1640 medium) were incubated in the presence or absence of 19ak for 6 h, followed by incubation with 2′,7′-dichlorofluorescein diacetate (DCFH-DA) in the dark for 30 min. The fluorescence intensity was then measured by flow cytometry, and the data were analyzed with Win MDI 2.9 software. […]

Series [5] deals with C. albicans SC5314. The series can be described thus: Minimal fungicidal concentration (MFC). It counts as cell-based. To be noted: Candida albicans, read-out: MFC against C. albicans SC5314.
The subject of series [6] is C. albicans SC5314 cells. Briefly: Intracellular free iron levels using FeRhoNox-1. It counts as cell-based, Candida albicans. The conditions noted are these: 0.5 μg/mL, 6 h, compared with untreated cells. On the procedure: FeRhoNox-1 is a commercially available fluorescent probe that specifically binds Fe^2+ and is used to measure intracellular Fe^2 + content. C. albicans SC5314 cells cultured overnight were diluted to roughly 1 × 10^6 cells/mL in RPMI 1640 medium and challenged with various doses of 19ak for 6 h. Next, the cells were fixed with 4% paraformaldehyde for 1 h. After washing three times with PBS, the cells were stained with 5 μM FeRhoNox-1 for 30 min and analyzed by flow cytometry (Becton, Dickinson, CA, USA). Mammalian cells culture is according to the method described in Cytotoxicity testing which was described in Supplemental material in detail. After 12 h of treatment with different concentrations of 19ak, the supernatant was discarded and washed three times with PBS. Cells were collected after staining with FeRhoNox-1 for 30 min in the dark, and the fluorescence intensity of stained cells was analyzed by flow cytometry.

In series [7] the test system is C. albicans SC5314. The series can be described thus: G. mellonella infection model. It counts as in vivo, Galleria mellonella. The conditions noted are these: 19ak 0.4 μg per larva, FLC 2 μg per larva. Here is the method: The G. mellonella infection model was used to evaluate the in vivo activity of 19ak in terms of survival, fungal burden, and histological features. A total of 60 larvae of similar size were selected and randomly allocated to four groups. The last right foreleg of each larva was injected with 10 μL of C. albicans SC5314 suspension (2 × 10^7 CFU/mL). Two hours after infection, the larvae were injected with 10 μL of drug or vehicle as follows for the four groups: 19ak (0.4 μg per larva), FLC (2 μg per larva), control (PBS), and blank control (no injection with C. albicans but injections of sterile PBS twice). The data for the blank control are not shown because this group survived well during the experiment. Failure to respond to light contact with forceps was considered a sign of larval death. In the survival assay, the number of surviving larvae in each group was calculated at the same time every day for 4 days.
To determine fungal burden, larval infection and treatment were performed as described above with groups of 30 larvae each. Each day, five larvae were randomly selected from each group and homogenized with glass beads in 0.5 mL of sterile PBS. The homogenate was serially diluted with sterile PBS, and 5 μL was spread on a yeast-peptone-dextrose solid plate ([62]). Experiments were performed at least three times independently.
We also conducted histopathological studies to explore the therapeutic effects of the drugs on G. mellonella fungal infection. First, the groups of larvae were infected as described above. After 48 h, three larvae from each group were randomly selected and fixed in 4% paraformaldehyde for sectioning and Periodic acid-Schiff (PAS) staining. The tissue was observed and photographed under an Olympus microscope with 40 × magnification (IX71, Olympus, Tokyo, Japan). The experiments were performed independently a minimum of three times.

The record followed here is PMC9241695, “Selective Metal Chelation by a Thiosemicarbazone Derivative Interferes with Mitochondrial Respiration and Ribosome Biogenesis in Candida albicans” (Microbiology Spectrum, 2022).

The structures appear in SMILES notation. In brackets after ≈: the same amount, converted by molar mass.

As usually defined, the IC50 is the concentration that gives 50% inhibition. Lower therefore signals inhibition by little substance. The MFC is the smallest concentration meeting the test's criterion for killing the fungus.

As for `C/C(=N\NC(=S)N(C)C)c1ccccn1` [Compound 19ak], the IC50 at 48 h worked out at 6.97 mg/L (≈ 31.4 µM) in series [1] (16HBE cells (bronchial epithelial cell line), 16HBE cells) and 26.8 mg/L (≈ 121 µM) in series [1] (HK2 cells (renal epithelial cell line), HK2 cells). For the same compound, the “Selectivity index 16HBE” value in series [2] turned out to be 55.78. Further, the “Decrease of intracellular ATP levels” value in the series on C. albicans SC5314 cells [3] is given as “approximately 65.8%”. In addition, the “ROS formation (DCFH-DA)” value with C. albicans SC5314 cells [4] is reported as “decreased ROS”. Also, the MFC in the series on C. albicans SC5314 [5] is 64 mg/L (≈ 288 µM). Besides, the “Intracellular labile ferrous ions (FeRhoNox-1)” value in the series on C. albicans SC5314 cells [6] is given as “obvious drop”. The “Histopathology of infected larvae” value in the series with C. albicans SC5314 [7] (48 h, PAS staining) is given as “fewer infected areas”. In addition, the “Fungal burden of infected larvae” value in the series with C. albicans SC5314 [7] (compared with the control group) is given as “greatly reduced the fungal burden”. In the series with C. albicans SC5314 [7] (after 4 days of infection, 2 h after infection), the “Survival rate of infected larvae” value is 67%.
